Measured values taken from patent US7754868B2, “Nucleic acid encoding two-component sensing and regulatory proteins, antimicrobial proteins and uses therefor” (North Carolina State University, priority 2004, dated 2010).
“Also recorded” adds a separate entry of the source.

Columns and labels:
[1] = test system: L. acidophilus NCFM LBA1430 HPK mutant; assay: Growth curves with 0.3% of individual bile salts; format: cell-based, Lactobacillus acidophilus; details: 0.3% bile salt
Protocol: Growth curve experiments were also performed using 0.3% of individual bile salts: taurocholic acid, taurodeoxycholic acid, taurochenodeoxycholic acid, glycocholic acid, glycodeoxycholic acid.

[2] = test system: L. acidophilus HPK mutant (NCK1686); details: log-phase cells
Protocol: (§1) Log phase cells at an A600 of 0.25-0.3 (pH>5.8) from a 2% inoculum in MRS broth were centrifuged and resuspended in the same volume of NMS, or MRS containing 15 or 20% (v/v) ethanol. CFU/ml were determined at 30 minutes intervals by serial dilutions in 10% MRS and enumeration on MRS agar as described above.

[3] = test system: L. acidophilus control NCK1398 (NCFM::lacL); details: 20% ethanol, after 90 min, log-phase cells
Protocol: as §1

Structure (SMILES)	effect on growth of the HPK mutant compared to wild type [1]	survival, HPK mutant versus control ([2]; 15% (v/v) ethanol)	reduction in survival ([2]; 20% ethanol, after 90 min) [log]	reduction in survival [3] [log]
C[C@H](CCC(=O)NCCS(=O)(=O)O)[C@H]1CC[C@H]2[C@@H]3CC[C@@H]4C[C@H](O)CC[C@]4(C)[C@H]3C[C@H](O)[C@]12C [Sodium taurodeoxycholate]	the only salt that affected the growth of the HPK mutant; also recorded: more inhibitory effect on the growth of the HPK mutant than other salts tested	–	–	–
CCO [ethanol]	–	No differences were observed	4	1
